Reference: patent US8080657B2, “Compounds of reverse turn mimetics and the use thereof” (Choongwae Pharma Corporation, priority 2008, dated 2011)

These molecules were tested against T1, cDNA-expressed human hepatic CYP3A4 (Homo sapiens, UniProt P08684) (assay: P450 CYP3A4 inhibitory activity screening (BFC substrate, fluorescence)). Details: P450 CYP3A4 inhibitory activity screening, fluorescent assay; read-out: CYP3A4 inhibition, IC50 (μM) fluorescent assay.
T1 construct: purchased BD Gentest 456202
T1 sequence (P08684 whole entry): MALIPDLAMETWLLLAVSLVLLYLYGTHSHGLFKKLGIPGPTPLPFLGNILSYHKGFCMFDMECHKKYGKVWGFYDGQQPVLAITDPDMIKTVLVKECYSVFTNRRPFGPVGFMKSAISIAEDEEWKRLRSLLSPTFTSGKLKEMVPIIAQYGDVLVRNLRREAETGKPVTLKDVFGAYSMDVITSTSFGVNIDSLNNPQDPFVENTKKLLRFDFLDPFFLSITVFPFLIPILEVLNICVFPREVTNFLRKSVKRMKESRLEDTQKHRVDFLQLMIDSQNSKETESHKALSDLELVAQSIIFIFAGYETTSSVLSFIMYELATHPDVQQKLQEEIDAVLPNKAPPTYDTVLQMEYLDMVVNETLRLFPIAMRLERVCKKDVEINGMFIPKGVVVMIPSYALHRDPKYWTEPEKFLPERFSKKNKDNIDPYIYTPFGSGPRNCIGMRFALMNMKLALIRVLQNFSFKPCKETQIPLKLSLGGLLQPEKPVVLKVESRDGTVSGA
Format: biochemical
Protocol: P450 CYP3A4 Inhibitory Activity Screening
Assay was conducted in a 200 μL volume in 96-well microtiter plates using cDNA-expressed human hepatic CYP3A4 (supersome, BD Gentest™ #456202). 7-Benzyloxy-4-trifluoromethyl-coumarin (BFC) was used as a substrate for CYP3A4. Test articles and substrate BFC were dissolved in 100% acetonitrile. The final volume of acetonitrile in the incubation mixture was less than 1% (volume/volume). Potassium phosphate buffer (pH 7.4, final concentration 0.1 M), MgCl2 (final concentration 8.3 mM), EDTA (final concentration 1.67 mM), a test article stock solution, a CYP3A4 supersome and NADPH (final concentration 0.25 mM) were added to each well. The reaction was initiated by the addition of substrate (BFC, final concentration 30 µM) after a 10 min pre-incubation at 37° C. After 10 min incubation at 37° C., the reaction was terminated by the addition of 75 μL of acetonitrile:0.5 M Tris-base=4:1 (volume/volume). Thereafter, Fluorescent signal was measured using a fluorometer. BFC metabolite, 7-hydroxy-4-trifluoromethyl-coumarin, was measured using an excitation wavelength of 409 nm and an emission wavelength of 530 nm.

IC50 [µM]	Compound
39.1	CN1CC(=O)N2[C@@H](Cc3ccc(O)cc3)C(=O)N(Cc3cccc4c3ncn4C)C[C@@H]2N1C(=O)NCc1ccccc1 [compound 40]
9.16	C=CCN1CC(=O)N2[C@@H](Cc3ccc(O)cc3)C(=O)N(Cc3cccc(NS(C)(=O)=O)c3)C[C@@H]2N1C(=O)NCc1ccccc1 [compound 18]
18.9	C=CCN1CC(=O)N2[C@@H](Cc3ccc(O)cc3)C(=O)N(Cc3cccc(C(=O)OCC)n3)C[C@@H]2N1C(=O)NCc1ccccc1 [compound 31]
6.95	C=CCN1CC(=O)N2[C@@H](Cc3ccc(O)cc3)C(=O)N(Cc3cccc4c(=O)ccoc34)C[C@@H]2N1C(=O)NCc1ccccc1 [compound 9]
24.5	C=CCN1CC(=O)N2[C@@H](Cc3ccc(O)cc3)C(=O)N(Cc3ccccc3S(C)(=O)=O)C[C@@H]2N1C(=O)NCc1ccccn1 [compound 34]
8.79	C=CCN1CC(=O)N2[C@@H](Cc3ccc(O)cc3)C(=O)N(Cc3cccc(C(C)=O)c3)C[C@@H]2N1C(=O)NCc1ccccc1 [compound 15]
5.4	C=CCN1CC(=O)N2[C@@H](Cc3ccc(O)cc3)C(=O)N(Cc3cccc4c3ncn4CC#N)C[C@@H]2N1C(=O)NCc1ccccc1 [compound 4]
5.92	C=CCN1CC(=O)N2[C@@H](Cc3ccc(O)cc3)C(=O)N(Cc3cccc4c(C(=O)C5CC5)c[nH]c34)C[C@@H]2N1C(=O)NCc1ccccc1 [compound 61]
> 50	C=CCN1CC(=O)N2[C@@H](Cc3ccc(O)cc3)C(=O)N(Cc3cccc(C(N)=O)c3)C[C@@H]2N1C(=O)NCc1ccccc1 [compound 53]
5.33	C=CCN1CC(=O)N2[C@@H](Cc3ccc(O)cc3)C(=O)N(Cc3cccnc3Br)C[C@@H]2N1C(=O)NCc1ccccc1 [compound 3]
> 50	C=CCN1CC(=O)N2[C@@H](Cc3ccccc3)C(=O)N(Cc3cccc(C(=O)O)c3)C[C@@H]2N1C(=O)NCc1ccccc1 [compound 48]
18.7	C=CCN1CC(=O)N2C(CN(Cc3ccccc3S(C)(=O)=O)C(=O)[C@@H]2Cc2ccc(O)cc2)N1C(=O)NCc1ccccc1 (some centres unmarked) [compound 30]
17.9	C=CCN1CC(=O)N2[C@@H](Cc3ccc(O)cc3)C(=O)N(Cc3cccc(NC(C)=O)c3)C[C@@H]2N1C(=O)NCc1ccccc1 [compound 28]
> 50	C=CCN1CC(=O)N2[C@@H](Cc3ccc(O)cc3)C(=O)N(Cc3cccc(N4CCCC4=O)c3)C[C@@H]2N1C(=O)NCc1ccccn1 [compound 46]
26.4	C=CCN1CC(=O)N2[C@@H](Cc3ccc(OS(N)(=O)=O)cc3)C(=O)N(Cc3cccc(C(=O)NC)n3)C[C@@H]2N1C(=O)NCc1ccccc1 [compound 35]
41.4	C=CCN1CC(=O)N2[C@@H](Cc3ccc(O)cc3)C(=O)N(Cc3cccc(C(=O)NOC)c3)C[C@@H]2N1C(=O)NCc1ccccc1 [compound 41]
> 50	C=CCN1CC(=O)N2[C@@H](Cc3ccc(OS(N)(=O)=O)cc3)C(=O)N(Cc3cccc(C(=O)O)c3)C[C@@H]2N1C(=O)NCc1ccccc1 [compound 55]
13.5	C=CCN1CC(=O)N2[C@@H](Cc3ccc(O)cc3)C(=O)N(Cc3ccccc3-n3cnnn3)C[C@@H]2N1C(=O)NCc1ccccc1 [compound 26]
> 50	C=CCN1CC(=O)N2[C@@H](Cc3ccc(O)cc3)C(=O)N(Cc3cccc(C(=O)O)c3)C[C@@H]2N1C(=O)NCc1ccc(Cl)cc1Cl [compound 50]
> 50	C=CCN1CC(=O)N2[C@@H](Cc3ccc(O)cc3)C(=O)N(Cc3cccc(C(=O)O)c3)C[C@@H]2N1C(=O)NCc1ccccc1 [compound 54]
7.65	C=CCN1CC(=O)N2[C@@H](Cc3ccc(O)cc3)C(=O)N(Cc3cccc(C(=O)NCC4CC4)c3)C[C@@H]2N1C(=O)NCc1ccccc1 [compound 12]
5.23	C=CCN1CC(=O)N2[C@@H](Cc3ccc(O)cc3)C(=O)N(Cc3cccc(N(C)C=O)c3)C[C@@H]2N1C(=O)NCc1ccccc1 [compound 2]

Compound	IC50 [µM]
C=CCN1CC(=O)N2[C@@H](Cc3ccc(O)cc3)C(=O)N(Cc3cccc(C(=O)N4CCCC4)c3)C[C@@H]2N1C(=O)NCc1ccccc1 [compound 1]	5

Same assay, conditions: human CYP3A4 supersome, substrate BFC, 10 min incubation at 37° C.; read-out: IC50 values of Compounds against CYP3A4 activity

IC50 [µM]	Compound
> 10	C=CCN1CC(=O)N2[C@@H](Cc3ccc(O)cc3)C(=O)N(Cc3cccc4c3nc(C(F)(F)F)n4C)C[C@@H]2N1C(=O)NCc1ccccc1 [E]
24.2	C=CCN1CC(=O)N2[C@@H](Cc3ccc(O)cc3)C(=O)N(Cc3cccc(NC(=O)OC)c3)C[C@@H]2N1C(=O)NCc1ccccc1 (single isomer, unassigned) [C]

These molecules were tested on Wnt signaling (assay: TopFlash reporter gene bioassay in SW480 cells). Details: Homo sapiens, SW480, TopFlash reporter gene assay, inhibition of Wnt signaling; read-out: RGA, IC50 (μM) TopF.
Format: cell-based

IC50 [µM]	Compound
0.97 ± 0.18	C=CCN1CC(=O)N2[C@@H](Cc3ccc(O)cc3)C(=O)N(Cc3cccc(-c4ccccc4OC)n3)C[C@@H]2N1C(=O)NCc1ccccc1 [compound 81]
3.97 ± 0.57	C=CCN1CC(=O)N2[C@@H](Cc3ccc(O)cc3)C(=O)N(Cc3ccccc3Sc3ccc(Cl)cc3)C[C@@H]2N1C(=O)NCc1ccccc1 [compound 219]
5.81 ± 0.58	C=CCN1CC(=O)N2[C@@H](Cc3ccc(O)cc3)C(=O)N(Cc3cccc(NS(N)(=O)=O)c3)C[C@@H]2N1C(=O)NCc1ccccc1 [compound 243]
36.1 ± 2.69	C=CCN1CC(=O)N2C(Cc3ccc(O)cc3)C(=O)N(Cc3ccccc3N3CCNCC3)CC2N1C(=O)NCc1ccccc1 (centres unmarked) [compound 221]
0.53 ± 0.24	C=CCN1CC(=O)N2[C@@H](Cc3ccc(OS(N)(=O)=O)cc3)C(=O)N(Cc3cccc4c(C(C)=O)c[nH]c34)C[C@@H]2N1C(=O)NCc1ccccc1 [compound 29]
9.11 ± 1.82	C=CCN1CC(=O)N2[C@@H](Cc3ccc(O)cc3)C(=O)N(Cc3ccnc(N)n3)C[C@@H]2N1C(=O)NCc1ccccc1 [compound 264]
40.2 ± 5.7	C=CCN1CC(=O)N2[C@@H](Cc3ccc(O)c(Cl)c3)C(=O)N(Cc3cccc4scnc34)C[C@@H]2N1C(=O)NCc1ccccc1 [compound 234]
4.98 ± 0.69	C=CCN1CC(=O)N2[C@@H](Cc3ccc(O)cc3)C(=O)N(Cc3cncc(C(=O)OC)c3)C[C@@H]2N1C(=O)NCc1ccccc1 [compound 233]
0.52 ± 0.06	C=CCN1CC(=O)N2[C@@H](Cc3ccc(O)cc3)C(=O)N(Cc3ccc(F)c(-c4cccnc4)c3)C[C@@H]2N1C(=O)NCc1ccccc1 [compound 28]
0.99 ± 0.14	C=CCN1CC(=O)N2[C@@H](Cc3ccc(O)cc3)C(=O)N(Cc3cccc(-c4cccc(N)c4)c3)C[C@@H]2N1C(=O)NCc1ccccc1 [compound 82]
0.9 ± 0.2	C=CCN1CC(=O)N2[C@@H](Cc3ccc(O)cc3)C(=O)N(Cc3ccc(F)c(OCCN4CCOCC4)c3)C[C@@H]2N1C(=O)NCc1ccccc1 [compound 70]
1.56 ± 0.33	C=CCN1CC(=O)N2[C@@H](Cc3ccc(O)cc3)C(=O)N(Cc3cccc4c3OC(F)(F)O4)C[C@@H]2N1C(=O)NCc1ccccc1 [compound 124]
10.2 ± 2.3	C=CCN1CC(=O)N2[C@@H](Cc3ccc(OS(=O)(=O)NC)cc3)C(=O)N(Cc3ccc(F)cc3F)C[C@@H]2N1C(=O)NCc1ccccc1 [compound 151]
1.27 ± 0.1	C=CCN1CC(=O)N2[C@@H](Cc3ccc(O)cc3)C(=O)N(Cc3ccc(F)c4scnc34)C[C@@H]2N1C(=O)NCCc1cccs1 [compound 104]
1.3 ± 0.2	C=CCN1CC(=O)N2[C@@H](Cc3ccc(O)cc3)C(=O)N(Cc3ccc(F)c4scnc34)C[C@@H]2N1C(=O)NCc1cccs1 [compound 107]
0.52 ± 0.048	C=CCN1CC(=O)N2[C@@H](Cc3ccc(O)cc3)C(=O)N(Cc3cccc4c3oc3ccccc34)C[C@@H]2N1C(=O)NCc1ccccc1 [compound 26]
0.78 ± 0.13	C=CCN1CC(=O)N2[C@@H](Cc3ccc(O)cc3)C(=O)N(Cc3ccccc3OC(F)F)C[C@@H]2N1C(=O)NCc1ccccc1 [compound 58]
2.01 ± 0.2	C=CCN1CC(=O)N2[C@@H](Cc3ccc(O)cc3)C(=O)N(Cc3cccc(C(N)=O)n3)C[C@@H]2N1C(=O)NCc1ccccc1 [compound 168]
4.3 ± 0.7	C=CCN1CC(=O)N2[C@@H](Cc3ccc(O)cc3)C(=O)N(Cc3ccc(F)c4scnc34)C[C@@H]2N1C(=O)NCc1ccc(OC)c(OC)c1 [compound 224]
1.57 ± 0.29	C=CCN1CC(=O)N2[C@@H](Cc3ccc(O)cc3)C(=O)N(Cc3cccnc3Br)C[C@@H]2N1C(=O)NCc1ccccc1 [compound 125]
1.93 ± 0.18	C=CCOc1c(CN2C[C@H]3N(C(=O)CN(CC=C)N3C(=O)NCc3ccccc3)[C@@H](Cc3ccc(O)cc3)C2=O)cccc1C(C)(C)C [compound 143]
3.62 ± 0.63	C=CCN1CC(=O)N2[C@@H](Cc3ccc(O)cc3)C(=O)N(Cc3cccc(C(=O)N4CCOCC4)c3)C[C@@H]2N1C(=O)NCc1ccccc1 [compound 212]

Same assay, conditions: Homo sapiens, SW480; read-out: RGA, IC50 (μM) TopF

Compound	IC50 [µM]
C=CCN1CC(=O)N2[C@@H](Cc3ccc(OP(=O)(O)O)cc3)C(=O)N(Cc3cccc4c(-c5ccccc5)c[nH]c34)C[C@@H]2N1C(=O)NCc1ccccc1 [compound 22]	0.45 ± 0.29
C=CCN1CC(=O)N2[C@@H](Cc3ccc(O)cc3)C(=O)N(Cc3csc4ccc(NS(C)(=O)=O)cc34)C[C@@H]2N1C(=O)NCc1ccccc1 [compound 246]	6.59 ± 0.86

Same assay, conditions: TopFlash reporter gene assay, inhibition of Wnt signaling; read-out: RGA, IC50 (μM) TopF

IC50 [µM]	Compound
9.43 ± 1.65	C=CCN1CC(=O)N2[C@@H](Cc3ccc(O)cc3)C(=O)N(Cc3cccc(C(=O)NC4CCCC4)c3)C[C@@H]2N1C(=O)NCc1ccccc1 [compound 266]
